According to ChEMBL document CHEMBL2412979, “2-(2-Methylfuran-3-carboxamido)-3-phenylpropanoic acid, a potential CYP26A1 inhibitor to enhance all-trans retinoic acid-induced leukemia cell differentiation based on virtual screening and biological evaluation” (Bioorg Med Chem, 2013):

Columns and labels:
[1] = test system: NB-4; experiment: Potentiation of ATRA-induced human NB4 cell differentiation at 1 uM after 96 hrs by nitroblue tetrazolium assay (reference value: 29.93 +/- 0.73%); format: functional
[2] = test system: NB-4; experiment: Potentiation of ATRA-induced human NB4 cell growth inhibition at 1 uM after 96 hrs by hemocytometry (reference value: 32.42 +/- 3.98%); format: functional; conditions: NB-4, 96 h, read-out: GI
[3] = test system: NB-4; experiment: Potentiation of ATRA-induced human NB4 cell differentiation at 0.5 uM after 96 hrs by nitroblue tetrazolium assay (reference value: 29.93 +/- 0.73%); format: functional
[4] = test system: NB-4; experiment: Cytotoxicity against human NB4 cells assessed as growth inhibition at 1 uM after 96 hrs by hemocytometry relative to control; format: functional; conditions: NB-4, 96 h, read-out: GI
[5] = test system: NB-4; experiment: Potentiation of ATRA-induced human NB4 cell growth inhibition at 0.5 uM after 96 hrs by hemocytometry (reference value: 32.42 +/- 3.98%); format: functional; conditions: NB-4, 96 h, read-out: GI
[6] = test system: NB-4; experiment: Cytotoxicity against human NB4 cells assessed as growth inhibition at 0.5 uM after 96 hrs by hemocytometry relative to control; format: functional; conditions: NB-4, 96 h, read-out: GI
[7] = test system: NB-4; experiment: Potentiation of ATRA-induced human NB4 cell differentiation at 10 uM after 96 hrs by nitroblue tetrazolium assay (reference value: 29.44 +/- 2.03%); format: functional
[8] = test system: NB-4; experiment: Potentiation of ATRA-induced human NB4 cell differentiation at 5 uM after 96 hrs by nitroblue tetrazolium assay (reference value: 29.44 +/- 2.03%); format: functional
[9] = test system: NB-4; experiment: Induction of human NB4 cell differentiation at 0.5 to 10 uM after 96 hrs by nitroblue tetrazolium assay relative to control; format: functional
[10] = test system: NB-4; experiment: Potentiation of ATRA-induced human NB4 cell growth inhibition at 10 uM after 96 hrs by hemocytometry (reference value: 32.70 +/- 2.25%); format: functional; conditions: NB-4, 96 h, read-out: GI
[11] = test system: NB-4; experiment: Potentiation of ATRA-induced human NB4 cell growth inhibition at 5 uM after 96 hrs by hemocytometry (reference value: 32.70 +/- 2.25%); format: functional; conditions: NB-4, 96 h, read-out: GI
[12] = test system: NB-4; experiment: Cytotoxicity against human NB4 cells assessed as growth inhibition at 10 uM after 96 hrs by hemocytometry relative to control; format: functional; conditions: NB-4, 96 h, read-out: GI
[13] = test system: NB-4; experiment: Cytotoxicity against human NB4 cells assessed as growth inhibition at 5 uM after 96 hrs by hemocytometry relative to control; format: functional; conditions: NB-4, 96 h, read-out: GI
[14] = target: T1, Cytochrome P450 26A1 (Homo sapiens, UniProt O43174); experiment: Inhibition of CYP26A1 in human NB4 cells assessed as ATRA level in medium at 5 uM after 12 hrs by LC-MS/MS analysis (reference value: 27.05 +/- 1.34 ng/ml); format: cell-based; conditions: nb-4, 12 h
T1 sequence (O43174 whole entry): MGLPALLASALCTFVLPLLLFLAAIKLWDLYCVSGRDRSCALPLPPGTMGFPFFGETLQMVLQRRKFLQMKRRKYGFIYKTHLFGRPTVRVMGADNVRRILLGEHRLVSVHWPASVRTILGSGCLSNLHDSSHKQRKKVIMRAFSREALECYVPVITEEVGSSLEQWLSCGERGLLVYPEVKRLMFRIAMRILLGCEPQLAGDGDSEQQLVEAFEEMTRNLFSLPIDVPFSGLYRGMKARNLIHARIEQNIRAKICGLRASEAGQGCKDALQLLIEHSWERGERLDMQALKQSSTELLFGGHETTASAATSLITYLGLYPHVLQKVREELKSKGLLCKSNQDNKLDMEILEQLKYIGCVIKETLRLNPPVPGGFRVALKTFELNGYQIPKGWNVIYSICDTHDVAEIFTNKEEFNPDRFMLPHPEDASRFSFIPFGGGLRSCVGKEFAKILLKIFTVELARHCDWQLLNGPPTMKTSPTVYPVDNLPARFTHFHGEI

## Cc1cc(O)nc(SCC(=O)c2ccc(O)c(O)c2)n1
[1]
  Activity: 32.57%
[2]
  inhibition of growth at 1 µM: 51.7%
[3]
  Activity: 33.19%
[4]
  inhibition of growth at 1 µM: 18.7%
[5]
  inhibition of growth at 0.5 µM: 50.3%
[6]
  inhibition of growth at 0.5 µM: 19.3%
[7]
  Activity: 39.43%
[8]
  Activity: 41.32%
[9]
  Activity: 0%
[10]
  inhibition of growth at 10 µM: 53.5%
[11]
  inhibition of growth at 5 µM: 53.4%
[12]
  inhibition of growth at 10 µM: 12.8%
[13]
  inhibition of growth at 5 µM: 12.2%

## Cc1oc(C(C)(C)C)cc1C(=O)NC(Cc1ccccc1)C(=O)O (stereo not drawn)
[1]
  Activity: 38%
[2]
  inhibition of growth at 1 µM: 47.1%
[14]
  Activity: 33.9 ng/mL
[3]
  Activity: 39.58%
[4]
  inhibition of growth at 1 µM: 17.8%
[5]
  inhibition of growth at 0.5 µM: 50.6%
[6]
  inhibition of growth at 0.5 µM: 12.8%
[7]
  Activity: 42.64%
[8]
  Activity: 45.16%
[9]
  Activity: 0%
[10]
  inhibition of growth at 10 µM: 47.1%
[11]
  inhibition of growth at 5 µM: 40.2%
[12]
  inhibition of growth at 10 µM: 8.05%
[13]
  inhibition of growth at 5 µM: 7.7%

## Cc1cccc(-c2nc3cc(/N=C/c4c(C)cc(O)cc4O)ccc3o2)c1
[1]
  Activity: 27.65%
[2]
  inhibition of growth at 1 µM: 48.5%
[3]
  Activity: 29.21%
[4]
  inhibition of growth at 1 µM: 22.6%
[5]
  inhibition of growth at 0.5 µM: 50.1%
[6]
  inhibition of growth at 0.5 µM: 25.8%
[7]
  Activity: 45.38%
[8]
  Activity: 36.43%
[9]
  Activity: 0%
[10]
  inhibition of growth at 10 µM: 79%
[11]
  inhibition of growth at 5 µM: 64.3%
[12]
  inhibition of growth at 10 µM: 48.5%
[13]
  inhibition of growth at 5 µM: 37.1%

## O=C(Nc1ccncc1)c1cc(-c2ccc(Br)cc2)nc2ccccc12
[1]
  Activity: 35.7%
[2]
  inhibition of growth at 1 µM: 48.7%
[3]
  Activity: 36.53%
[4]
  inhibition of growth at 1 µM: 24.7%
[5]
  inhibition of growth at 0.5 µM: 54.3%
[6]
  inhibition of growth at 0.5 µM: 20.2%
[7]
  Activity: 38.52%
[8]
  Activity: 33.68%
[9]
  Activity: 0%
[10]
  inhibition of growth at 10 µM: 59.4%
[11]
  inhibition of growth at 5 µM: 63.1%
[12]
  inhibition of growth at 10 µM: 52.9%
[13]
  inhibition of growth at 5 µM: 37.9%

## CCOc1ccc(NS(=O)(=O)c2ccc(Br)cc2)cc1
[7]
  Activity: 30.3%
[8]
  Activity: 26.83%
[9]
  Activity: 0%
[10]
  inhibition of growth at 10 µM: 48.4%
[11]
  inhibition of growth at 5 µM: 44.1%
[12]
  inhibition of growth at 10 µM: 20.8%
[13]
  inhibition of growth at 5 µM: 17.1%

## CC(=O)Nc1ccc(C(=O)Nc2ccc(OCC(=O)O)cc2)cc1
[1]
  Activity: 34.74%
[2]
  inhibition of growth at 1 µM: 45.1%
[3]
  Activity: 37.62%
[4]
  inhibition of growth at 1 µM: 8.83%
[5]
  inhibition of growth at 0.5 µM: 45%
[6]
  inhibition of growth at 0.5 µM: 7.8%
[7]
  Activity: 38.97%
[8]
  Activity: 38.29%
[9]
  Activity: 0%
[10]
  inhibition of growth at 10 µM: 48.8%
[11]
  inhibition of growth at 5 µM: 45.8%
[12]
  inhibition of growth at 10 µM: 14.2%
[13]
  inhibition of growth at 5 µM: 17.9%
